Here are results for 13 compounds from publication PMC9739882, “Main Determinants Affecting the Antiproliferative Activity of Stilbenes and Their Gut Microbiota Metabolites in Colon Cancer Cells: A Structure–Activity Relationship Study” (International Journal of Molecular Sciences, 2022).

Usually IC50 stands for the midpoint of a concentration-inhibition curve.

In series [1] the test system is HT-29 cells. The series can be described thus: MTT antiproliferative assay in HT-29 cells. The settings on record: for IC50: Homo sapiens, HT-29, antiproliferative, MTT, mean ± SD (n = 3); for IC50 decrease from 48 to 72 h in HT-29: ratio of IC50 at 48 h vs 72 h (Figure S1). The class given is cell-based, human. The procedure: (§1) The cell lines were obtained from the American Type Culture Collection (ATCC, Rockville, MD, USA) and cultured according to the ATCC. The human colon cancer cell lines Caco-2 (p53-null) and HT-29 (mutant p53), and non-tumorigenic colon cells CCD18-Co (wild-type p53) were grown as reported elsewhere. All tested compounds were solubilized in DMSO (<0.5% in the culture medium) and filter-sterilized (0.2 μm) before addition to the culture media. […] The effects of the compounds on Caco-2, HT-29, and CCD18-Co cell viability and proliferation were measured using the MTT reduction assay according to Giménez-Bastida et al.. Data are presented as the mean ± standard deviation (SD) of at least three independent experiments (n = 2 wells for each compound (dose and time point) per experiment). Then, IC50 antiproliferative values were determined using a four-parameter logistic regression fit. The calculations were performed using the online tool Quest Graph^TM IC50 Calculator (AAT Bioquest, Inc., Sunnyvale, CA, USA (https://www.aatbio.com/tools/ic50-calculator, accessed on 26 April 2022).
On the technique in general: Tetrazolium dyes change colour on reduction, which living cells bring about.

In series [2] the test system is Caco-2 cells. The series can be described thus: Apoptosis induction in Caco-2 cells (Annexin V/PI, flow cytometry). The format is cell-based, human. The settings on record: Caco-2, 72 h, compound at its IC50 concentration. As for the experimental part: (§2) The effects of all the compounds at their corresponding IC50 values for 3 days of treatment on cell cycle distribution in Caco-2 cells were measured as described previously. Data are shown as the mean ± SD of 3 independent experiments (2 wells per treatment) for each time point. In addition, the apoptosis induction exerted by all the compounds at their corresponding IC50 values for 3 days of treatment was examined using the Annexin V/PI detection kit (Molecular Probes, ThermoFisher Scientific, Madrid, Spain) as described previously. Briefly, 20,000 Caco-2 cells per sample were analyzed by flow cytometry (Coulter, EPICS XL-MCL, Miami, FL, USA), and staurosporine 5 μM was used as a standard inducer of apoptosis. Finally, the percentage of alive (negative in both annexin V-FITC and PI), early apoptotic (positive in annexin V-FITC and negative in PI), late apoptotic (positive in both annexin V-FITC and PI), and necrotic cells (only positive in PI) was calculated. Data are shown as the mean ± SD of 3 independent experiments (2 wells per treatment) for each time point.
On the technique in general: Flow cytometry measures light scatter and fluorescence of single cells or particles in a stream.

The test system of series [3] is Caco-2 cells. Description: MTT antiproliferative assay in Caco-2 cells. The class given is cell-based, human. To be noted: for IC50: Homo sapiens, Caco-2, antiproliferative, MTT, mean ± SD (n = 3). As for the experimental part:
as §1

Series [4] deals with HT-29 cells. Description: Phase-II metabolism of compounds by HT-29 cells (UPLC-QTOF-MS of culture media). The class given is in vitro ADME, human. To be noted: 50 μM, 24 h incubation. The procedure:
(§3) Briefly, cell culture supernatants were collected at the end of the experiment and analyzed to measure the presence and concentration of the tested compounds. First, ACN (200 μL) was added per 200 μL of culture media, vortexed, and centrifuged at 16,435× g for 10 min. The supernatant was then concentrated in a Speedvac® concentrator (Savant SPD 121P), and then the residue was redissolved in 100 μL of MeOH and filtered (0.45 μm) before analysis by UPLC-QTOF-MS.
(§4) Briefly, the analyses were performed on an Agilent 1290 Infinity UPLC system coupled to a 6550 Accurate-Mass quadrupole-time-of-flight (QTOF) mass spectrometer (Agilent Technologies, Waldbronn, Germany) using an electrospray interface (Jet Stream Technology). Chrysin was used as an internal control of the ionization signal. Spectra were acquired in the m/z range from 100 to 1100, in negative polarity mode (m/z^−) and an acquisition rate of 1.5 spectra/s. Data were processed using the Mass Hunter Qualitative Analysis software (version B.06.00, Agilent). […]
(§5) A direct comparison with the available standards was used to identify the different metabolites. […] In addition, using extracted ion chromatograms (EICs) for area calculation and quantification reduced the possibility of misinterpreting overlapping peaks.

Series [5] deals with Caco-2 cells. The series can be described thus: Phase-II metabolism of compounds by Caco-2 cells (UPLC-QTOF-MS of culture media). The class given is in vitro ADME, human. To be noted: 50 μM, 72 h incubation. The procedure: as §3, §4, §5
Series [6] relates to Caco-2 cells. The series can be described thus: Cell cycle distribution in Caco-2 cells (flow cytometry). The class given is cell-based, human. The settings on record: Caco-2, 72 h, compound at its IC50 concentration, p < 0.05 vs control. The procedure: as §2
On the set-up of series [7]: method as in PMID 35981285. To be noted: cited from earlier work.
Series [8] concerns CCD18-Co cells. The series can be described thus: MTT antiproliferative assay in non-tumorigenic CCD18-Co cells. The format is cell-based. To be noted: Homo sapiens, CCD-18Co, 72 h, non-tumorigenic colon cells. As for the experimental part: as §1
[9] abbreviates: 48 h, read-out: IC50 HT-29 (48 h).
[10] abbreviates: 72 h, read-out: IC50 HT-29 (72 h).
Where [11] appears, read: 48 h, read-out: IC50 Caco-2 (48 h).
Setting [12] is: 72 h, read-out: IC50 Caco-2 (72 h).

Like-named read-outs stand apart in the source and are kept apart here.

For the compound `Oc1cccc(CCc2ccccc2)c1` [3HDB, 3-(2-phenylethyl)phenol], the IC50 in series [1] (setting [9]) was more than 100 µM; in series [1] (setting [10]), 81.7 ± 15.5 µM; in series [3] (setting [11]) it was more than 100 µM; in series [3] (setting [12]), 42.9 ± 4.1 µM. Further, in series [2], the “early-phase apoptotic cells vs control cells” value is “statistically significant (p < 0.05)”.

As to `Oc1ccc(CCc2ccccc2)cc1` [4HDB, 4-(2-phenylethyl)phenol], the IC50 in series [1] (setting [9]) is more than 100 µM; in series [1] (setting [10]) it was 96.7 ± 6.7 µM; in series [3] (setting [11]) it was more than 100 µM; in series [3] (setting [12]) it was 56.9 ± 8 µM.

For the compound `Oc1ccc(/C=C/c2ccccc2)cc1` [4HST, 4-Hydroxy-trans-stilbene], in series [4], the “compound metabolized by HT-29 cells after 24 h” value is “fully metabolized”. The IC50 in series [1] (setting [9]) is 34 ± 8.1 µM; in series [1] (setting [10]) it was 24.4 ± 11.3 µM; in series [3] (setting [11]), 26.9 ± 8 µM; in series [3] (setting [12]) it was 11.4 ± 10.1 µM. For the same compound, the “IC50 decrease from 48 to 72 h in HT-29” value in series [1] was determined as 1.4 fold. Also, the “late-phase apoptotic cells vs control cells” value in series [2] is on record as “significant differences (p < 0.05)”. In addition, the “compound metabolized by Caco-2 cells after 72 h” value in series [5] is recorded as “hardly metabolized”. The “cell cycle phase increase vs control” value in series [6] was “significant increase (p < 0.05) was observed at both phases, S and G2/M”. Further, the “IC50 decrease from 48 to 72 h in Caco-2” value in series [3] (ratio of IC50 at 48 h vs 72 h (Figure S1)) is listed as 5 fold.

As to `OCc1ccc(/C=C/c2ccccc2)cc1` [4STMe, trans-4-stilbenemethanol], the IC50 in series [1] (setting [9]) is 85.4 ± 16.5 µM; in series [1] (setting [10]), 57.1 ± 18.9 µM; in series [3] (setting [11]), 88.3 ± 14.6 µM; in series [3] (setting [12]), 59.9 ± 23.1 µM. Moreover, the “early-phase apoptotic cells vs control cells” value in series [2] is on record as “statistically significant (p < 0.05)”.

As for `Oc1cc(O)cc(CCc2ccccc2)c1` [DHP, 3-hydroxy-(5-phenethyl)phenol], the IC50 in series [1] (setting [9]) was more than 100 µM; in series [1] (setting [10]), 82.4 ± 12.1 µM; in series [3] (setting [11]) it was 54 ± 3.1 µM; in series [3] (setting [12]) it was 73.9 ± 13.8 µM. Further, in series [2], the “early-phase apoptotic cells vs control cells” value is listed as “statistically significant (p < 0.05)”.

Regarding `Oc1ccc(CCc2cc(O)cc(O)c2)cc1` [DHRSV, Dihydroresveratrol], the “concentration reached in the human colon” value in series [7] was more than 100 µM. Moreover, the IC50 in series [1] (setting [9]) was more than 100 µM; in series [1] (setting [10]), 69 ± 9.3 µM; in series [8] it was 53 µM; in series [3] (setting [11]) it was 55.4 ± 10.8 µM; in series [3] (setting [12]), 33.8 ± 17.8 µM. Moreover, in series [2], the “early-phase apoptotic cells vs control cells” value is recorded as “statistically significant (p < 0.05)”.

Turning to `Oc1ccc(C=Cc2cccc(O)c2)cc1` [DHST, 3-(4-hydroxystyryl)phenol], the IC50 is 64.8 ± 15.6 µM in series [1] (setting [9]), 48.3 ± 17.8 µM in series [1] (setting [10]), 57.1 ± 10.2 µM in series [3] (setting [11]) and 22.7 ± 6.4 µM in series [3] (setting [12]). Also, the “early-phase apoptotic cells vs control cells” value in series [2] is recorded as “statistically significant (p < 0.05)”. The “late-phase apoptotic cells vs control cells” value in series [2] is recorded as “significant differences (p < 0.05)”. In addition, in series [6], the “cell cycle phase increase vs control” value was “significant increase (p < 0.05) was observed at both phases, S and G2/M”.

As to `Oc1ccc(CCc2cccc(O)c2)cc1` [LUNU, 3-(4-hydroxyphenethyl)phenol], the “concentration reached in the human colon” value in series [7] was more than 100 µM. Moreover, the IC50 in series [1] (setting [9]) is more than 100 µM; in series [1] (setting [10]), 53.2 ± 6.8 µM; in series [8], 67 µM; in series [3] (setting [11]), 84.5 ± 11.7 µM; in series [3] (setting [12]), 50.5 ± 23.1 µM.

Consider `Oc1cc(O)cc(/C=C/c2ccc(O)cc2O)c1` [Oxy-RSV, 3,5,2′,4′-tetrahydroxy-trans-stilbene], for which the half-maximal inhibitory concentration (IC50) in series [1] (setting [9]) turned out to be 96.7 ± 2.4 µM; in series [1] (setting [10]) it was 83.4 ± 5.8 µM; in series [3] (setting [11]), 74.7 ± 11.5 µM; in series [3] (setting [12]), 55.4 ± 2.5 µM. For the same compound, the “early-phase apoptotic cells vs control cells” value in series [2] is “statistically significant (p < 0.05)”. In addition, the “late-phase apoptotic cells vs control cells” value in series [2] is on record as “significant differences (p < 0.05)”.

For the compound `Oc1cc(O)cc(/C=C/c2ccc(O)c(O)c2)c1` [PICE, 3,5,3′,4′-tetrahydroxy-trans-stilbene], the IC50 stood at 78.5 ± 5.7 µM in series [1] (setting [9]), 69.5 ± 4.6 µM in series [1] (setting [10]), 55.4 ± 10.8 µM in series [3] (setting [11]) and 42 ± 9.8 µM in series [3] (setting [12]). The “early-phase apoptotic cells vs control cells” value in series [2] is listed as “statistically significant (p < 0.05)”. Moreover, the “late-phase apoptotic cells vs control cells” value in series [2] is on record as “significant differences (p < 0.05)”.

In the case of `Oc1cc(O)cc(/C=C/c2ccccc2)c1` [PINO, 3,5-dihydroxy-trans-stilbene], the IC50 in series [1] (setting [9]) is 37.5 ± 14.3 µM; in series [1] (setting [10]) it was 38.1 ± 8 µM; in series [3] (setting [11]), 55.3 ± 12.7 µM; in series [3] (setting [12]) it was 26.4 ± 7.1 µM. Moreover, in series [1], the “IC50 decrease from 48 to 72 h in HT-29” value was “no change”. For the same compound, the “early-phase apoptotic cells vs control cells” value in series [2] is reported as “statistically significant (p < 0.05)”.

In the case of `COc1cc(/C=C/c2ccc(O)cc2)cc(OC)c1` [PTERO, 3,5-dimethoxy, 4′-hydroxy-trans-stilbene], the IC50 in series [1] (setting [9]) amounted to 45.1 ± 13.7 µM; in series [1] (setting [10]), 37.9 ± 5.4 µM; in series [3] (setting [11]), 67.6 ± 12.3 µM; in series [3] (setting [12]) it was 43 ± 11.6 µM. For the same compound, the “early-phase apoptotic cells vs control cells” value in series [2] was “statistically significant (p < 0.05)”. Further, the “late-phase apoptotic cells vs control cells” value in series [2] was “significant differences (p < 0.05)”. In addition, the “cell cycle phase increase vs control” value in series [6] was “significant increase (p < 0.05) was observed only at the G2/M phase”.

Consider `Oc1ccc(/C=C/c2cc(O)cc(O)c2)cc1` [RSV, 3,5,4′-trihydroxy-trans-stilbene], for which the “compound metabolized by HT-29 cells after 24 h” value in series [4] is on record as 100%. Also, the IC50 came to 68.9 ± 22.6 µM in series [1] (setting [9]), 59.1 ± 9.9 µM in series [1] (setting [10]), 50.4 ± 3.4 µM in series [3] (setting [11]) and 18.8 ± 1.6 µM in series [3] (setting [12]). In addition, the “late-phase apoptotic cells vs control cells” value in series [2] was “significant differences (p < 0.05)”. Moreover, the “compound metabolized by Caco-2 cells after 72 h” value in series [5] was 14%.
